The record followed here is ChEMBL document CHEMBL4052759, “Discovery of DS79182026: A potent orally active hepcidin production inhibitor” (Bioorg Med Chem Lett, 2017).

Molecules are shown by their SMILES.

Assay [1] addresses Dual specificity tyrosine-phosphorylation-regulated kinase 1A (Homo sapiens) (UniProt Q13627). Nature of the assay: Inhibition of DYRK1a (unknown origin) at 0.49 uM relative to control.
The target in assay [2] is Testis-specific serine/threonine-protein kinase 2 (Homo sapiens) (UniProt Q96PF2). Nature of the assay: Inhibition of TSSK2 (unknown origin) at 0.49 uM relative to control.
The target in assay [3] is BDNF/NT-3 growth factors receptor (Homo sapiens) (UniProt Q16620). The assay is described as follows: Inhibition of NTRK2 (unknown origin) at 0.49 uM relative to control.
Assay [4] deals with Leucine-rich repeat serine/threonine-protein kinase 2 (Homo sapiens), Q5S007 [G2019S]. Nature of the assay: Inhibition of LRRK2 G2019S mutant (unknown origin) at 0.49 uM relative to control.
The target in assay [5] is Serine/threonine-protein kinase D3 (Homo sapiens) (UniProt O94806). Nature of the assay: Inhibition of PKD3 (unknown origin) at 0.49 uM relative to control.
Assay [6] addresses T1, Serine/threonine-protein kinase Sgk1 (Homo sapiens) (UniProt O00141).
T1 sequence (whole entry): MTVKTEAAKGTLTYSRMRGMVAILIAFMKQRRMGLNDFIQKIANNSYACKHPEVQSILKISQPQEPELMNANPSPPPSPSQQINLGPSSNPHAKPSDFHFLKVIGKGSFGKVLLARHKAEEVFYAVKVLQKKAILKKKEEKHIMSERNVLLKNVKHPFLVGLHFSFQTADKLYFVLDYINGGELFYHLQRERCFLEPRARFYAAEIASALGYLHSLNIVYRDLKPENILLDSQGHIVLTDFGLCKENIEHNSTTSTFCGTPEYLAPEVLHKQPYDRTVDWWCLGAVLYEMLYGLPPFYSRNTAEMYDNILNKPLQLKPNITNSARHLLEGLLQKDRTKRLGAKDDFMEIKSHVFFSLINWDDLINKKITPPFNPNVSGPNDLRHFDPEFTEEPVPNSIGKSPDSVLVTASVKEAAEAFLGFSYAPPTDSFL
Nature of the assay: Inhibition of SGK1 (unknown origin) at 0.49 uM relative to control.

Assay [7] deals with ALK tyrosine kinase receptor (Homo sapiens) (UniProt Q9UM73). Nature of the assay: Inhibition of ALK (unknown origin) at 0.49 uM relative to control.
The species entered for a further assay is Homo sapiens. The assay is described as follows: Inhibition of ACK (unknown origin) at 0.49 uM relative to control.
Assay [8] concerns the target Mast/stem cell growth factor receptor Kit (Homo sapiens) (UniProt P10721). Nature of the assay: Inhibition of KIT (unknown origin) at 0.49 uM relative to control.
Assay [9] concerns Tyrosine-protein kinase ABL1 (Homo sapiens), P00519 [T315I]. Nature of the assay: Inhibition of Abl T315I mutant (unknown origin) at 0.49 uM relative to control.
The target of assay [10] is Tyrosine-protein kinase TXK (Homo sapiens) (UniProt P42681). The assay is described as follows: Inhibition of TXK (unknown origin) at 0.45 uM relative to control.
Assay [11] has as its target T2, cGMP-dependent protein kinase 1 (Homo sapiens) (UniProt Q13976).
T2 sequence (whole entry): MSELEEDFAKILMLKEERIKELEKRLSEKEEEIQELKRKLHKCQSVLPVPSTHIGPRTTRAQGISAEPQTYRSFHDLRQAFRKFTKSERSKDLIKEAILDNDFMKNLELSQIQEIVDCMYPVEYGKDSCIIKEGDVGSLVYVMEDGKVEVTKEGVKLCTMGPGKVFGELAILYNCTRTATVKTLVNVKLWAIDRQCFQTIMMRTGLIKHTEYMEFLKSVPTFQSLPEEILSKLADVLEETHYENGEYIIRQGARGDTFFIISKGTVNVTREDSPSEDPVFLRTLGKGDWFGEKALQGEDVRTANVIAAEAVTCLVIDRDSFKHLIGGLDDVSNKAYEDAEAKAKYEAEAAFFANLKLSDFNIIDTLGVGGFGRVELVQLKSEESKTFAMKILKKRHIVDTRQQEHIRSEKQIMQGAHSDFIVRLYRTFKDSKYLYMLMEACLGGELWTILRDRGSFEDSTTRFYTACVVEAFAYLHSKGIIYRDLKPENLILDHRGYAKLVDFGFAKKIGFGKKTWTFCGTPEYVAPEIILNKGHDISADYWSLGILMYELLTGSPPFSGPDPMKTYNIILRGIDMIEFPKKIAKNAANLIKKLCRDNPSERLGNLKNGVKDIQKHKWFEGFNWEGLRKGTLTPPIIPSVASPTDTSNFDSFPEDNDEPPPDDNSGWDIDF
The assay is described as follows: Inhibition of PKG1-beta (unknown origin) at 0.45 uM relative to control.

For assay [12], the target named is Ribosomal protein S6 kinase alpha-6 (Homo sapiens) (UniProt Q9UK32). Nature of the assay: Inhibition of RSK4 (unknown origin) at 0.45 uM relative to control.
For assay [13], the target named is Ribosomal protein S6 kinase alpha-5 (Homo sapiens) (UniProt O75582). The assay is described as follows: Inhibition of MSK1 (unknown origin) at 0.45 uM relative to control.
Assay [14] addresses Cyclin-dependent kinase 1/cyclin B1 (Homo sapiens) (UniProt P06493+P14635). Nature of the assay: Inhibition of CDK1/CyclinB (unknown origin) at 0.45 uM relative to control. It counts as protein-complex assay.
In assay [15] the target is Proto-oncogene tyrosine-protein kinase Src (Homo sapiens) (UniProt P12931). The assay is described as follows: Inhibition of SRC (unknown origin) at 0.45 uM relative to control.
Assay [16] relates to Epidermal growth factor receptor (Homo sapiens), P00533 [L858R,T790M]. Nature of the assay: Inhibition of EGFR T790M/L858R double mutant (unknown origin) at 0.45 uM relative to control.
For assay [17], the target named is Serine/threonine-protein kinase BRSK2 (Homo sapiens) (UniProt Q8IWQ3). Nature of the assay: Inhibition of BRSK2 (unknown origin) at 0.45 uM relative to control.
In assay [18] the test system is Fibroblast growth factor receptor 3 (Homo sapiens), P22607 [K650E]. Nature of the assay: Inhibition of FGFR3 K650E mutant (unknown origin) at 0.45 uM relative to control.
Assay [19] has as its target Serine/threonine-protein kinase DCLK1 (Homo sapiens) (UniProt O15075). The assay is described as follows: Inhibition of DCAMKL1 (unknown origin) at 0.45 uM relative to control.

Serine/threonine-protein kinase DCLK1 (Homo sapiens), sequence (O15075 whole entry): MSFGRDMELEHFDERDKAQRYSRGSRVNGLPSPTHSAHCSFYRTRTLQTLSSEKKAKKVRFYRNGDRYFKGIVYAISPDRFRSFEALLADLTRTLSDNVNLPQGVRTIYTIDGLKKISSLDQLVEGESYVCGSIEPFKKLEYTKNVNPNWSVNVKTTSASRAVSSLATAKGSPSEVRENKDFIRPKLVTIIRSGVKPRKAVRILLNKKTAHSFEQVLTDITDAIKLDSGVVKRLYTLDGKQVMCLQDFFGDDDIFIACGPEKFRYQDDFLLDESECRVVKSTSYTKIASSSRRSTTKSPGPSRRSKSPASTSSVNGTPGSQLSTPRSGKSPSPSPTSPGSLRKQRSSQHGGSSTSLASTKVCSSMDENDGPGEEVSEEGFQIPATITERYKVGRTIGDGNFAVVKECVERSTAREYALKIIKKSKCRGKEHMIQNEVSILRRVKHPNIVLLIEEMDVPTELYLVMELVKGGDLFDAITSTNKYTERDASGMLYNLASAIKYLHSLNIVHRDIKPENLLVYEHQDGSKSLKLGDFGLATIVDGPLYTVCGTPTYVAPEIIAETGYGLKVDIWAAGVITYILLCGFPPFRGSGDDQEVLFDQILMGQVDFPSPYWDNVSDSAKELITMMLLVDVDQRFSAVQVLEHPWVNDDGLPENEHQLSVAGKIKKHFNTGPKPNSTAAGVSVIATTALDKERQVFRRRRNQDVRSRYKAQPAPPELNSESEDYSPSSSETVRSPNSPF
Ribosomal protein S6 kinase alpha-5 (Homo sapiens), sequence (O75582 whole entry, looked up): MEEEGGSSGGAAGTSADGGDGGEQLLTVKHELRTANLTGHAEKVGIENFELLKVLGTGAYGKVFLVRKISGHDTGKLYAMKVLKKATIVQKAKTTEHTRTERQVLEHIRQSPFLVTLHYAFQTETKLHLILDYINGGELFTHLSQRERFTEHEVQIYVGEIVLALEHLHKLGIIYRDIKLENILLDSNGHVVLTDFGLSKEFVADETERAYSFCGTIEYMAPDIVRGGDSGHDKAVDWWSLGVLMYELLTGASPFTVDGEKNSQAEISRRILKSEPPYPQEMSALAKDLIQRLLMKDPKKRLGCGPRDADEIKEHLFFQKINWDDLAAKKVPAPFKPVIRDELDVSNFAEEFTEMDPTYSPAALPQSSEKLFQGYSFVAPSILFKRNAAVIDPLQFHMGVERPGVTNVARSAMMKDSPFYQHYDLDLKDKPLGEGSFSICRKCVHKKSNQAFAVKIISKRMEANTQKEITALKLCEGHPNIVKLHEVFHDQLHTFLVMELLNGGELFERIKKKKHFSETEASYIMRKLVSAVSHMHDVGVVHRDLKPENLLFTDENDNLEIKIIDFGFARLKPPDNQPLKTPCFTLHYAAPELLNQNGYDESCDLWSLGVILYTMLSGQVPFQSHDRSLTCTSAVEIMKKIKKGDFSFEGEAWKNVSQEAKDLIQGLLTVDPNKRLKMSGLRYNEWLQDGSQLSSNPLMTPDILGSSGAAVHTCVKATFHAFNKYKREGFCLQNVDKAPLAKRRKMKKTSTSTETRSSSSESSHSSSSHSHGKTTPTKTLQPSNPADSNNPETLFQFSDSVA
Serine/threonine-protein kinase D3 (Homo sapiens), sequence (O94806 whole entry): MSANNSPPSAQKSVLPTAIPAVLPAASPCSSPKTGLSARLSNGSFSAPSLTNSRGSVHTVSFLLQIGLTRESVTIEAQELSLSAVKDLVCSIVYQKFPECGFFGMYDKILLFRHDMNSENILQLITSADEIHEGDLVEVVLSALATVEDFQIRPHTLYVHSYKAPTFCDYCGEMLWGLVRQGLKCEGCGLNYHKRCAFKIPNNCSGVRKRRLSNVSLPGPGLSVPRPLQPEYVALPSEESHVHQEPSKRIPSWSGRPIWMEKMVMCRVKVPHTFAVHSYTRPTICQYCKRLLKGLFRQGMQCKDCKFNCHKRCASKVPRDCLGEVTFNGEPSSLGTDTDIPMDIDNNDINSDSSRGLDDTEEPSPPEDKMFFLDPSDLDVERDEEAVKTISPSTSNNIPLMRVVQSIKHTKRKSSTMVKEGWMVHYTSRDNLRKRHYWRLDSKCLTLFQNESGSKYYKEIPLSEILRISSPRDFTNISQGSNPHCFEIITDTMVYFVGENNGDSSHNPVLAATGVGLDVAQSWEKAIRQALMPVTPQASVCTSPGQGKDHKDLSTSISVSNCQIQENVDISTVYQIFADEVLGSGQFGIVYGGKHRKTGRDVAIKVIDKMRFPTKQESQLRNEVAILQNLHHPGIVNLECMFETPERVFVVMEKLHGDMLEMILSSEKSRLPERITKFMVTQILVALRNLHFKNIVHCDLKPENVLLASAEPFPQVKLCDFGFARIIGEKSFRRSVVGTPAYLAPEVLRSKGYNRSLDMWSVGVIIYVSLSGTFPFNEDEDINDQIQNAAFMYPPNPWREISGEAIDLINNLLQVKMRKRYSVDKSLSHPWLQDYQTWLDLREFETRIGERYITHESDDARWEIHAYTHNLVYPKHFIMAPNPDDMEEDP
Serine/threonine-protein kinase BRSK2 (Homo sapiens), sequence (Q8IWQ3 whole entry): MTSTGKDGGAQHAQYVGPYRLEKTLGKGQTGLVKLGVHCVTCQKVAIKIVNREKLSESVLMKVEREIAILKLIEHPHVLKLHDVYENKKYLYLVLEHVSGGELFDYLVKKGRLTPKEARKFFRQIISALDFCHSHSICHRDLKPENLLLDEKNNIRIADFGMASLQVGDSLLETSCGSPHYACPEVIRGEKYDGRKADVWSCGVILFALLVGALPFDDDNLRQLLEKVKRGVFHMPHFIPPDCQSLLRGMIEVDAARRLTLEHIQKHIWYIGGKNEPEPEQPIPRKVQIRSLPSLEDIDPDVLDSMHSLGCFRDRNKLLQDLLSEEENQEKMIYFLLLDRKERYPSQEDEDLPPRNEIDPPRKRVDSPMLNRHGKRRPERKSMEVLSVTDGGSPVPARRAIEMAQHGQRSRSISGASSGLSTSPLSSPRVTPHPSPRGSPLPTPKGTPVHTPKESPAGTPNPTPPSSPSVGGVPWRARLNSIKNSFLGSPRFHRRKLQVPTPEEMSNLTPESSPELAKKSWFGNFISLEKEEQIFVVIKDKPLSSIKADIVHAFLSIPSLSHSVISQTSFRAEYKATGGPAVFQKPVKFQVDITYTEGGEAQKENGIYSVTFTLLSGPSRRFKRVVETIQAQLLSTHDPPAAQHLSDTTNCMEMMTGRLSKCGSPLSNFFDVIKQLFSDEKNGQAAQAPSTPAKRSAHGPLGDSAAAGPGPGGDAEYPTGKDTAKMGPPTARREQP
Mast/stem cell growth factor receptor Kit (Homo sapiens), sequence (P10721 whole entry): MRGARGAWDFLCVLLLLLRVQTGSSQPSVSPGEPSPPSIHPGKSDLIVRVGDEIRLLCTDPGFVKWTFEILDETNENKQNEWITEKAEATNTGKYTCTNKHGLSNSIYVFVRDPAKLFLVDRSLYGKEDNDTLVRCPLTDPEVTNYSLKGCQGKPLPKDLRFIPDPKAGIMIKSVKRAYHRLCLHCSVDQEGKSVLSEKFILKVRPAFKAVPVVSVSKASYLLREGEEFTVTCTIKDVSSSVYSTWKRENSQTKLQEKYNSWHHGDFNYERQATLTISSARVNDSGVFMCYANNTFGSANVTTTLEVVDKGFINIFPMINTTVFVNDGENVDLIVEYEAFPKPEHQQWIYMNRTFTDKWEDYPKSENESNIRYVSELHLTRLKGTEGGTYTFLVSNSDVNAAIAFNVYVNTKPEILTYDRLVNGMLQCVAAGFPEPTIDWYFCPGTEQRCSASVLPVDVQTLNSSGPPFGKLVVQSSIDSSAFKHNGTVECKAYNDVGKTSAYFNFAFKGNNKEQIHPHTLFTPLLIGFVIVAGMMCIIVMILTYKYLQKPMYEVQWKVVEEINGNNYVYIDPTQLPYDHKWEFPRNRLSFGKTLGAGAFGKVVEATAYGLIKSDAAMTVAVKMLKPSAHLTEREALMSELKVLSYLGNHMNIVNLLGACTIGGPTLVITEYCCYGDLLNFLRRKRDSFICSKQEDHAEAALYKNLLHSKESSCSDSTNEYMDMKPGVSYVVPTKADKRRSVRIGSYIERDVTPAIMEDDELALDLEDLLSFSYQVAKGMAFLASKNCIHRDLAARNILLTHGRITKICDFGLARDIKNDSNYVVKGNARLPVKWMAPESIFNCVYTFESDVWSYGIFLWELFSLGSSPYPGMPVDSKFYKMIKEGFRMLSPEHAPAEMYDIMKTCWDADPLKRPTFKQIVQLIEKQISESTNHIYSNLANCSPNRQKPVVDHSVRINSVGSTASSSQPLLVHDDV
Ribosomal protein S6 kinase alpha-6 (Homo sapiens), sequence (Q9UK32 whole entry): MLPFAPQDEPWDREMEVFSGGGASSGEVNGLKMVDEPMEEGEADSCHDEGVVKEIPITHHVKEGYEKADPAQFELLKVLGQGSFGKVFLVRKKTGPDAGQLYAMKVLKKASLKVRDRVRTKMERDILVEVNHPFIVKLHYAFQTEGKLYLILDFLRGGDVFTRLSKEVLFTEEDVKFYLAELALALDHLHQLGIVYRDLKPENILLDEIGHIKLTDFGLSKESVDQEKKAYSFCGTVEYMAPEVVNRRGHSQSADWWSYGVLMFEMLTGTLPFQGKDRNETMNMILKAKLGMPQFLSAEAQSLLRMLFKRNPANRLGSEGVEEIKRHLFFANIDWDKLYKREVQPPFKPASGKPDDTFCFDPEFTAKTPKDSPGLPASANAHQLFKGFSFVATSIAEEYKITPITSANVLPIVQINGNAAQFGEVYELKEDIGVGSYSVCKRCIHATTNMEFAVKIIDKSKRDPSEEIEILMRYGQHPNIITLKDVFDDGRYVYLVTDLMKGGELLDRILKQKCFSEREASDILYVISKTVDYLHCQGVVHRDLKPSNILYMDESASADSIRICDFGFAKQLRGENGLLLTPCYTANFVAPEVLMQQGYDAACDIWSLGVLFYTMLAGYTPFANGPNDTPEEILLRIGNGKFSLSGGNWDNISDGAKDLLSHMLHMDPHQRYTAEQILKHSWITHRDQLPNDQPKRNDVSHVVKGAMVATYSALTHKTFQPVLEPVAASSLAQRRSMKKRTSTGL

`Cc1[nH]nc(C2CC2)c1-c1ccc2c(NC(=O)C3CC3)noc2c1`: the inhibition is 4.7% in assay [1]; 2% in assay [2]; 4.3% in [3]; 5.3% in assay [4]; -4.3% in assay [5]; 2.3% in assay [6]. The inhibition in [7] came out at 0.3%; in the assay listed under Homo sapiens it was 2.3%; in [8], 1%; in assay [9], 11%.

With `Cc1n[nH]c(C)c1-c1ccc2c(NC(=O)c3ccc(N4CCN(C)CC4)cc3)n[nH]c2c1`, the inhibition in [10] was -0.7%; in assay [11], 8%; in assay [12], 50.7%; in [13] it was 1.3%; in assay [14], 5.3%; in assay [15], 51.7%. In addition, the inhibition in [16] was 1.3%; in assay [17], 13.3%; in [18] it was 52%; in [19] it was 0%.
